Data as given in US20160297768A1, “NOVEL IMIDAZOLE DERIVATIVES AND THERAPEUTIC USE THEREOF” (INDUSTRY-ACA-DEMIC COORPERATION FOUNDATION, YONSEI …, priority 2013, published 2016).

Legend:
A549 cells = assay: Apoptotic activity by MTT analysis, A549 cells; type: cell-based; settings: Homo sapiens, A549, 12 h, 15 μM of the compound, mean±standard deviation, read-out: Apoptosis (%) A549 cells
Method: (§1) Lung cancer cells (A549), colorectal cancer cells (HCT116), HeLa cells, liver cancer cells (HepG2), T-cell leukemia cells (Jurkat), myeloid leukemia cells (K562), breast cancer cells (MCF-7 and MDA-MB-231) and myelocytic leukemia cells ([…]) were obtained from the American Type Culture Collection (ATCC), and cultured in 10% fetal bovine serum (FBS), 50 units/mL penicillin and 50 units/mL streptomycin-added RPMI 1640 (Invitrogen). The cells were maintained in a humidified 37° C., 5% CO2 atmosphere. The anticancer activity was detected by MTT analysis. Each type of cancer cells were plated in triplicate in a 96-well microtiter plate, and cultured at 37° C. for 24 hours. The cells were treated with each of the compounds prepared above at 37° C. for 12 hours. After the culturing of the cells, 10 μL of an MTT reagent ((3-[4,5-dimethyl-2-thiazolyl]-2,5-diphenyl-2H-tetrazoliumbromide) was added to each well, and cultured for 3.5 hours. The absorbance of each sample was detected using a UV microplate reader (SpectraMax 340PC 384, Molecular Devices) at 570 nm. The detection results were measured as a mean value. The effect of each compound on apoptosis is shown in Table 1.
(§2) The A549 and HeLa cells were treated with 15 μM of the compound for 12 hours. The apoptosis was detected using MTT (mean±standard deviation).

HeLa cells = assay: Apoptotic activity by MTT analysis, HeLa cells; type: cell-based; settings: Homo sapiens, HeLa, 12 h, 15 μM of the compound, mean±standard deviation, read-out: Apoptosis (%) HeLa cells
Method: as §1, §2

| SMILES | cytotoxicity at 15 µM (A549 cells) | cytotoxicity at 15 µM (HeLa cells) |
| --- | --- | --- |
| NCCOCCOCCNC(=O)c1ccc(Cn2c(-c3cc(C(F)(F)F)cc(C(F)(F)F)c3)nc(-c3ccc4ncccc4c3)c2-c2ccc3ncccc3c2)cc1 [Example 106, N-(2-(2-(2-aminoethoxy)ethoxy)ethyl)-4-((2-(3,5-bis(trifluoromethyl)phenyl)-4,5-di(quinoline-6-yl)-1H-imidazole-1-yl)methyl)benzamide] | 38 ± 1.28% | 42 ± 0.76% |
| COc1ccc(-c2nc(-c3cccc(C(F)(F)F)c3)n(Cc3ccc(C(=O)NCCOCCOCCN)cc3)c2-c2ccc(OC)cc2F)c(F)c1 [Example 68, N-(2-(2-(2-aminoethoxy)ethoxy)ethyl)-4-((4,5-bis(2-fluoro-4-methoxyphenyl)-2-(3-(trifluoromethyl)phenyl)-1H-imidazole-1-yl)methyl)benzamide] | 58 ± 1.48% | 89 ± 0.28% |
| COc1ccc(-c2nc(-c3cc(O)cc(O)c3)n(Cc3ccc(C(N)=O)cc3)c2-c2ccc(OC)cc2)cc1 [Example 107, 4-((2-(3,5-dihydroxyphenyl)-4,5-bis(4-methoxyphenyl)-1H-imidazole-1-yl)methyl)benzamide] | 16 ± 0.3% | 0% |
| CN(C)c1ccc(-c2nc(-c3cccc(C(F)(F)F)c3)n(Cc3ccc(C(=O)NCCOCCOCCN)cc3)c2-c2ccc(N(C)C)cc2)cc1 [Example 27, N-(2-(2-(2-aminoethoxy)ethoxy)ethyl)-4-((4,5-bis(4-(dimethylamino)phenyl)-2-(3-(trifluoromethyl)phenyl)-1H-imidazole-1-yl)methyl)benzamide] | 76 ± 0.98% | 86 ± 0.38% |
| COc1ccc(-c2nc(-c3ccc(C(F)(F)F)cc3)n(Cc3ccc(C(=O)NCCOCCOCCN)cc3)c2-c2ccc(OC)cc2)cc1 [Example 43, N-(2-(2-(2-aminoethoxy)ethoxy)ethyl)-4-((4,5-bis(4-methoxyphenyl)-2-(4-(trifluoromethyl)phenyl)-1H-imidazole-1-yl)methyl)benzamide] | 36 ± 0.86% | 38 ± 0.38% |
| COc1ccc(-c2nc(-c3cc(C(F)(F)F)cc(C(F)(F)F)c3)n(CCOCCOCCN)c2-c2ccc(OC)cc2)cc1 [Example 187, 2-(2-(2-(2-(3,5-bis(trifluoromethyl)phenyl)-4,5-bis(4-methoxyphenyl)-1H-imidazole-1-yl)ethoxy)ethoxy)ethaneamine] | 31 ± 0.29% | 12 ± 0.92% |
| COc1ccc(-c2nc(-c3cc(C(F)(F)F)cc(C(F)(F)F)c3)n(Cc3ccc(C(=O)NCCCOCCOCCCN)cc3)c2-c2ccc(OC)cc2)cc1 [Example 198, N-(3-(2-(3-aminopropoxy)ethoxy)propyl)-4-((2-(3,5-bis(trifluoromethyl)phenyl)-4,5-bis(4-methoxyphenyl)-1H-imidazole-1-yl)methyl)benzamide] | 80 ± 1.43% | 83 ± 1.07% |
| COCCOC(=O)c1ccc(Cn2c(-c3cc(C(F)(F)F)cc(C(F)(F)F)c3)nc(-c3ccc(OC)cc3)c2-c2ccc(OC)cc2)cc1 [Example 122, 2-methoxyethyl 4-((2-(3,5-bis(trifluoromethyl)phenyl)-4,5-bis(4-methoxyphenyl)-1H-imidazole-1-yl)methyl)benzoate] | 58 ± 0.28% | 57 ± 0.77% |
| COC(=O)c1cc(C(=O)OC)cc(-c2nc(-c3ccc(OC)cc3)c(-c3ccc(OC)cc3)n2Cc2ccc(C(=O)NCCOCCOCCN)cc2)c1 [Example 47, Dimethyl 5-(1-(4-(2-(2-(2-aminoethoxy)ethoxy)ethylcarbamoyl)benzyl)-4,5-bis(4-methoxyphenyl)-1H-imidazole-2-yl)isophthalate] | 37 ± 0.86% | 40 ± 0.7% |
| COc1ccc(-c2nc(-c3cc(C(F)(F)F)cc(C(F)(F)F)c3)n(Cc3ccc(C(=O)NCCCCCCCCCCN)cc3)c2-c2ccc(OC)cc2)cc1 [Example 197, N-(10-aminodecyl)-4-((2-(3,5-bis(trifluoromethyl)phenyl)-4,5-bis(4-methoxyphenyl)-1H-imidazole-1-yl)methyl)benzamide] | 96 ± 0.54% | 97 ± 1.22% |
| COc1cccc(-c2nc(-c3cccc(C(F)(F)F)c3)n(Cc3ccc(C(=O)NCCOCCOCCN)cc3)c2-c2cccc(OC)c2)c1 [Example 11, N-(2-(2-(2-aminoethoxy)ethoxy)ethyl)-4-((4,5-bis(3-methoxyphenyl)-2-(3-(trifluoromethyl)phenyl)-1H-imidazole-1-yl)methyl)benzamide] | 81 ± 1.26% | 87 ± 1.55% |
| COc1ccc(-c2nc(-c3cc(C(F)(F)F)cc(C(F)(F)F)c3)n(Cc3ccc(C(=O)NCCCCCCN)cc3)c2-c2ccc(OC)cc2)cc1 [Example 191, N-(6-aminohexyl)-4-((2-(3,5-bis(trifluoromethyl)phenyl)-4,5-bis(4-methoxyphenyl)-1H-imidazole-1-yl)methyl)benzamide] | 78 ± 2.43% | 94 ± 1.64% |
| COc1ccc(-c2nc(-c3cc(C)cc(C)c3)n(Cc3ccc(C(=O)NCCOCCOCCN)cc3)c2-c2ccc(OC)cc2)cc1 [Example 45, N-(2-(2-(2-aminoethoxy)ethoxy)ethyl)-4-((2-(3,5-dimethylphenyl)-4,5-bis(4-methoxyphenyl)-1H-imidazole-1-yl)methyl)benzamide] | 37 ± 0.5% | 34 ± 1.61% |
| Cc1ccc(-c2nc(-c3cc(C(F)(F)F)cc(C(F)(F)F)c3)n(Cc3ccc(C(=N)N)cc3)c2-c2ccc(C)cc2)cc1 [Example 183, 4-((2-(3,5-bis(trifluoromethyl)phenyl)-4,5-ditolyl-1H-imidazole-1-yl)methyl)benzimidamide] | 56 ± 1.07% | 56 ± 0.38% |
| NCCOCCOCCNC(=O)c1ccc(Cn2c(-c3ccc(C(F)(F)F)cc3)nc(-c3ccccc3)c2-c2ccccc2)cc1 [Example 128, N-(2-(2-(2-aminoethoxy)ethoxy)ethyl)-4-((4,5-diphenyl-2-(4-(trifluoromethyl)phenyl)-1H-imidazole-1-yl)methyl)benzamide] | 77 ± 0.76% | 78 ± 1.61% |
| NCCOCCOCCNC(=O)c1ccc(Cn2c(-c3cc(C(F)(F)F)cc(C(F)(F)F)c3)nc(-c3ccc4c(c3)OCO4)c2-c2ccc3c(c2)OCO3)cc1 [Example 103, N-(2-(2-(2-aminoethoxy)ethoxy)ethyl)-4-((4,5-di(benzo[d][1,3]dioxol-5-yl)-2-(3,5-bis(trifluoromethyl)phenyl)-1H-imidazole-1-yl)methyl)benzamide] | 0% | 0% |
| COc1ccc(-c2nc(-c3cc(C(F)(F)F)cc(C(F)(F)F)c3)n(Cc3ccc(C(=O)NCCCCCCCN)cc3)c2-c2ccc(OC)cc2)cc1 [Example 192, N-(7-aminoheptyl)-4-((2-(3,5-bis(trifluoromethyl)phenyl)-4,5-bis(4-methoxyphenyl)-1H-imidazole-1-yl)methyl)benzamide] | 80 ± 1.78% | 93 ± 0.56% |
| Cc1ccc(-c2nc(-c3cccc(C(F)(F)F)c3)n(Cc3ccc(C(=O)NCCOCCOCCN)cc3)c2-c2ccc(C)cc2)cc1 [Example 35, N-(2-(2-(2-aminoethoxy)ethoxy)ethyl)-4-((4,5-ditolyl-2-(3-(trifluoromethyl)phenyl)-1H-imidazole-1-yl)methyl)benzamide] | 64 ± 1.36% | 87 ± 1.68% |
| N=C(N)c1ccc(Cn2c(-c3cc(C(F)(F)F)cc(C(F)(F)F)c3)nc(-c3ccc(Br)cc3)c2-c2ccc(Br)cc2)cc1 [Example 181, 4-((2-(3,5-bis(trifluoromethyl)phenyl)-4,5-bis(4-bromophenyl)-1H-imidazole-1-yl)methyl)benzimidamide] | 93 ± 0.59% | 94 ± 1.26% |
| COc1ccc(-c2nc(-c3cc(C(F)(F)F)cc(C(F)(F)F)c3)n(Cc3ccc(/C(N)=N/O)cc3)c2-c2ccc(OC)cc2)cc1 [Example 186, 4-((2-(3,5-bis(trifluoromethyl)phenyl)-4,5-bis(4-methoxyphenyl)-1H-imidazole-1-yl)methyl)-N′-hydroxybenzimidamide] | 5 ± 0.38% | 5 ± 0.27% |
| COC(=O)c1ccc(Cn2c(-c3cc(C(F)(F)F)cc(C(F)(F)F)c3)nc(-c3ccc(OC)cc3)c2-c2ccc(OC)cc2)cc1 [Example 120, Methyl4-((2-(3,5-bis(trifluoromethyl)phenyl)-4,5-bis(4-methoxyphenyl)-1H-imidazole-1-yl)methyl)benzoate] | 40 ± 0.49% | 53 ± 1.84% |
| COc1ccc(-c2nc(-c3cc(C(F)(F)F)cc(C(F)(F)F)c3)n(Cc3ccc(C(=O)NCCCCCCCCCCCN)cc3)c2-c2ccc(OC)cc2)cc1 [Example 199, N-(11-aminoundecyl)-4-((2-(3,5-bis(trifluoromethyl)phenyl)-4,5-bis(4-methoxyphenyl)-1H-imidazole-1-yl)methyl)benzamide] | 89 ± 1.63% | 93 ± 1.72% |
| COc1ccc(-c2nc(-c3cc(OC)c(OC)c(OC)c3)n(Cc3ccc(C(=O)NCCOCCOCCN)cc3)c2-c2ccc(OC)cc2)cc1 [Example 48, N-(2-(2-(2-aminoethoxy)ethoxy)ethyl)-4-((4,5-bis(4-methoxyphenyl)-2-(3,4,5-trimethoxyphenyl)-1H-imidazole-1-yl)methyl)benzamide] | 23 ± 0.68% | 30 ± 0.76% |
